Experimental data as given in paper PMC11303563 (Communications Medicine, 2024).
Values joined by “and” are separate entries in the source; they are usually repeats but may differ in a detail not shown here. Equal entries are not always repeated.

Experiments:
[1] = In vitro blood-brain barrier permeability assay (BBB kit RBT-24H); type: in vitro ADME, rat
Procedure: Therefore, we tested BBB transparency in vitro using the BBB kit RBT-24H (PharmaCo-Cell)[35]. […] Blood-brain barrier permeability assay The blood-brain barrier (BBB) transparency of TH analogs was assessed in vitro using RBT-24H (PharmaCo-Cell)[5] according to the manufacturer 's protocol. […] After 30 min, the assay buffer in the wells mimicking the abluminal side was collected, and the concentration of the compounds was measured using liquid chromatography-mass spectrometry (LC-MS). […] These tips were preconditioned with 20 μL of acetonitrile and 20 μL of 0.1% TFA in purified water. 100 μL of the samples were loaded onto the preconditioned tips, washed with 200 μL of DW, and then eluted with 10 μL of acetonitrile. Triazine (1% vol/vol) was added to the eluent as an internal standard. […] 3 μm; Imtakt, Kyoto, Japan). All the experiments were performed using an Ultimate 3000 UHPLC system coupled with a Q Exactive Plus Orbitrap mass spectrometer (Thermo Fisher Scientific). […] Data were shown as mean ± standard deviation (n=3).

[2] = system: THRβ; conditions: cited from earlier work
[3] = system: THR-regulated genes and lipid metabolism-related genes in the liver
[4] = system: high-fat diet (HFD)-induced obesity model mice; assay: Body weight of high-fat diet-induced obesity model mice; type: in vivo, C57BL/6J mice; set-up: Body weight, Mean Diff. ND vs. treated: unit not given here; conditions: for Body weight, 95.00% CI of diff. ND vs. treated / Body weight, Mean Diff. ND vs. treated: ND group as comparator; for Body weight, 95.00% CI of diff. ND vs. treated / Body weight, Mean Diff. ND vs. treated / Body weight, 95.00% CI of diff. Vehicle vs. treated / Body weight, Mean Diff. Vehicle vs. treated: Tukey's multiple comparisons test; for Body weight, Mean Diff. Vehicle vs. treated / Body weight, group mean (Fig. 3a) / Body weight, individual mice (Fig. 3a): in g (unit assumed); for Body weight, group mean (Fig. 3a): n 10
Procedure: The injection was given 6 h after light on. Food consumption and body weights were measured weekly. Food and water were provided to the animals ad libitum. The animals were treated according to the guidelines of Nagoya University, and all experimental procedures were approved by the Animal Experiment Committee of Nagoya University (A210715-003).
(§1) Epididymal adipose tissue was weighed.
(§2) Fig. 3 Effects of intraperitoneal injection of TH analogs on body weight and deposition of visceral fat. […] After three weeks of injection, body weight (a), and weight of the epididymal adipose tissue (b) were measured.

[5] = system: high-fat diet (HFD)-induced obesity model mice; assay: Weight of epididymal adipose tissue (visceral fat) in HFD mice; type: in vivo, C57BL/6J mice; conditions: for Fig. 3b (weight of epididymal adipose tissue), group mean (Mean 2): n=10; for Fig. 3b (weight of epididymal adipose tissue), group mean (Mean 2) / Fig. 3b (weight of epididymal adipose tissue), Mean Diff. ND vs. treatment (Tukey) / Fig. 3b (weight of epididymal adipose tissue), Mean Diff. Vehicle vs. treatment (Tukey) / Epididymal adipose weight, individual mice (Fig. 3b): in mg (unit assumed); for Fig. 3b (weight of epididymal adipose tissue), Mean Diff. ND vs. treatment (Tukey): ND minus treated; for Fig. 3b (weight of epididymal adipose tissue), Mean Diff. Vehicle vs. treatment (Tukey): Vehicle minus treated
Procedure: as §1, §2

[6] = system: high-fat diet (HFD)-induced obesity model mice; assay: Serum lipid analysis (total cholesterol, triglycerides) in HFD mice; type: in vivo, C57BL/6J mice; set-up: Serum TC (Fig. 4a), individual mouse values / Serum TG (Fig. 4b), individual mouse values / Serum TC (Fig. 4a), Mean Diff. ND vs. treatment (Tukey) / Serum TC (Fig. 4a), Mean Diff. Vehicle vs. treatment (Tukey) / Serum TC (Fig. 4a), group mean (Mean 2) / Mean Diff., ND vs. treated (Fig. 4b) / Mean Diff., Vehicle vs. treated (Fig. 4b) / Mean (Fig. 4b): unit not given here; conditions: for Serum TC (Fig. 4a), group mean (Mean 2) / Mean (Fig. 4b): n=10; for Serum TC (Fig. 4a), Mean Diff. ND vs. treatment (Tukey): ND minus treated; for Serum TC (Fig. 4a), Mean Diff. Vehicle vs. treatment (Tukey): Vehicle minus treated; for Mean Diff., ND vs. treated (Fig. 4b) / Mean Diff., Vehicle vs. treated (Fig. 4b): Tukey's multiple comparisons test; for Mean (Fig. 4b): group mean
Procedure: Fig. 4 Effects of TH analogs on the accumulation of lipids in mice. […] After 3 weeks of injection, serum and liver tissues were collected, and the amount of serum cholesterol (a), serum triglycerides (b), liver cholesterol (c), liver triglycerides (d), and liver total lipids (e) were measured.

[7] = HFD mice, 1 μmol/kg day, RT-qPCR, reference gene Rps18
[8] = liver gene expression, 1µmol dose group vs. Vehicle
[9] = HFD mice, i.p., dose not given (0.1 or 1 µmol/kg day), 3 weeks

For `Cn1c(=O)c2c(ncn2C)n(C)c1=O` [Caffeine], the Abluminal concentration ([1]; 10 µM on luminal side, 30 min, mean ± standard deviation (n=3)) was 0.504 ± 0.0551 µM and the Papp at 30 min, 10 µM ([1]; rat, 10 μM on luminal side, read-out: apparent permeability (Papp)) was 76.4 ± 8.35 ×10⁻⁶ cm/s.
For `Cc1cc(OCC(=O)O)cc(C)c1Cc1ccc(O)c(Cc2ccccc2)c1` [GC-24], the “selectivity for THRβ against THRα compared with GC-1” value [2] is listed as “ten-fold greater selectivity”.
In the case of `N[C@@H](Cc1cc(I)c(Oc2ccc(O)c(I)c2)c(I)c1)C(=O)O` [T3, triiodothyronine], the “Dio1 expression in the liver, individual animal values” ([3]; 1µmol, one value per animal) is reported as 3.359 and 3.177 and 2.594 and 3.891 and 4.465 and 3.761 and 2.009 and 5.092 and 4.047 and 3.355, the “Ldlr expression in the liver, individual animal values” ([3]; 1µmol, one value per animal) is reported as 0.07802 and 0.2909 and 0.1661 and 1.188 and 1.197 and 0.8436 and 2.271 and 0.5624 and 0.08829 and 0.1717 and the “Me1 expression in the liver, individual animal values” ([3]; 1µmol, one value per animal) is reported as 1.618 and 1.709 and 1.627 and 3.524 and 2.735 and 3.173 and 4.935 and 5.075 and 3.984 and 2.564. For the same compound, the “Pnpla2 expression in the liver, individual animal values” ([3]; 1µmol, one value per animal) was 0.3078 and 2.165 and 2.21 and 1.997 and 2.671 and 3.066 and 2.607 and 3.3336 and 0.6308 and 1.108, the “Srebp1c expression in the liver, individual animal values” ([3]; 1µmol, one value per animal) was 0.06015 and 0.2255 and 0.1838 and 0.1704 and 0.1322 and 0.09864 and 0.3225 and 0.5342 and 0.08549 and 0.1455 and the “Thrsp expression in the liver, individual animal values” ([3]; 1µmol, one value per animal) was 1.539 and 1.364 and 0.6114 and 1.153 and 1.565 and 1.274 and 1.191 and 0.8905 and 1.332 and 1.012. The “liver expression of Dio1 vs vehicle” value [3, 7] was “significantly upregulated”, the “liver expression of Ldlr vs vehicle” value [3, 7] was “not significantly different” and the “liver expression of Me1 vs vehicle” value [3, 7] was “significantly upregulated”. For the same compound, the “liver expression of Srebp1c vs vehicle” value [3, 7] was “significantly lower”, the “liver expression of Thrsp vs vehicle” value [3, 7] was “no significant difference” and the “Pnpla2, Dunn's multiple comparisons test, Mean rank diff. (Vehicle vs. compound)” value [3, 8] was -12.5. For the same compound, the “Srebp1c, Dunn's multiple comparisons test, Mean rank diff. (Vehicle vs. compound)” value [3, 8] was 17.87, the “Pnpla2, Mean rank of treatment group (Mean rank 2)” value ([3]; liver gene expression, 1µmol dose group, Vehicle mean rank 8) was 20.5 and the “Srebp1c, Mean rank of treatment group (Mean rank 2)” value ([3]; liver gene expression, 1µmol dose group, Vehicle mean rank […]) was 15.8. For the same compound, the “Body weight, 95.00% CI of diff. ND vs. treated” value ([4]; 0.1 µmol dose group) was -15.17 to -6.458, the “Body weight, Mean Diff. ND vs. treated” value ([4]; 0.1 µmol dose group) was -10.81 and the “Body weight, 95.00% CI of diff. Vehicle vs. treated” value ([4]; 0.1 µmol dose group) was -0.6376 to 7.800. For the same compound, the “Body weight, Mean Diff. Vehicle vs. treated” value ([4]; 0.1 µmol dose group) was 3.581, the “Body weight, 95.00% CI of diff. ND vs. treated” value ([4]; 1 µmol dose group) was -10.58 to -1.870 and the “Body weight, Mean Diff. ND vs. treated” value ([4]; 1 µmol dose group) was -6.225. For the same compound, the “Body weight, 95.00% CI of diff. Vehicle vs. treated” value ([4]; 1 µmol dose group) was 3.950 to 12.39, the “Body weight, Mean Diff. Vehicle vs. treated” value ([4]; 1 µmol dose group) was 8.169 and the “Body weight, group mean (Fig. 3a)” value ([4]; HFD mice, 0.1 µmol dose group) was 39.33. For the same compound, the “Body weight, individual mice (Fig. 3a)” value ([4]; HFD mice, 0.1 µmol dose group) was 37.99 and 36.19 and 32.32 and 43.27 and 39.51 and 44.21 and 39.97 and 39.21 and 40.58 and 40.07, the “Body weight, group mean (Fig. 3a)” value ([4]; HFD mice, 1 µmol dose group) was 34.74 and the “Body weight, individual mice (Fig. 3a)” value ([4]; HFD mice, 1 µmol dose group) was 29.82 and 33.07 and 30.29 and 38.87 and 37.72 and 35.76 and 37.12 and 36.01 and 34.61 and 34.17. The “body weight vs vehicle (in words)” value ([4]; HFD mice, i.p. 0.1 µmol/kg day, 3 weeks) was “did not significantly reduce body weight”, the “decrease of body weight compared to vehicle” value ([4]; HFD mice, i.p. 1 µmol/kg day, 3 weeks) was ~ 20% and the “Fig. 3b (weight of epididymal adipose tissue), group mean (Mean 2)” value ([5]; 0.1 µmol, HFD mice) was 1763. The “Fig. 3b (weight of epididymal adipose tissue), Mean Diff. ND vs. treatment (Tukey)” value ([5]; 0.1 µmol) was -1079, the “Fig. 3b (weight of epididymal adipose tissue), Mean Diff. Vehicle vs. treatment (Tukey)” value ([5]; 0.1 µmol) was 1095 and the “Fig. 3b (weight of epididymal adipose tissue), group mean (Mean 2)” value ([5]; 1 µmol, HFD mice) was 1015. For the same compound, the “Fig. 3b (weight of epididymal adipose tissue), Mean Diff. ND vs. treatment (Tukey)” value ([5]; 1 µmol) was -331.6, the “Fig. 3b (weight of epididymal adipose tissue), Mean Diff. Vehicle vs. treatment (Tukey)” value ([5]; 1 µmol) was 1843 and the “Epididymal adipose weight, individual mice (Fig. 3b)” value ([5]; HFD mice, 0.1 µmol dose group) was 1857.6 and 1829.3 and 1453.2 and 1516.6 and 740.6 and 1685.1 and 1862.2 and 1976.4 and 2365.6 and 2339.7. For the same compound, the “Epididymal adipose weight, individual mice (Fig. 3b)” value ([5]; HFD mice, 1 µmol dose group) was 781.7 and 1090.4 and 983.4 and 966.1 and 975.7 and 1007.4 and 1167.4 and 1184.7 and 1023.2 and 969.5, the “weight of the epididymal adipose tissue vs vehicle” value [5, 9] was “decreased significantly” and the “Serum TC (Fig. 4a), individual mouse values” ([6]; 0.1 µmol, HFD mice) was 158.333 and 124.25 and 113.833 and 130.625 and 129.792 and 168.458 and 110 and 105.208 and 104.375 and 153.458. For the same compound, the “Serum TG (Fig. 4b), individual mouse values” ([6]; 0.1 µmol, HFD mice) was 79.667 and 70.5 and 70.583 and 116.333 and 98 and 97.167 and 90.5 and 123.833 and 87.167 and 118.833, the “Serum TC (Fig. 4a), group mean (Mean 2)” value ([6]; 0.1 µmol, HFD mice) was 129.8 and the “Serum TC (Fig. 4a), Mean Diff. ND vs. treatment (Tukey)” value ([6]; 0.1 µmol) was 49.59. The “Serum TC (Fig. 4a), Mean Diff. Vehicle vs. treatment (Tukey)” value ([6]; 0.1 µmol) was 120.2, the “Serum TC (Fig. 4a), individual mouse values” ([6]; 1 µmol, HFD mice) was 78.333 and 92.5833 and 95.917 and 94.792 and 93.958 and 110.125 and 81.667 and 92.708 and 91.875 and 83.875 and the “Serum TG (Fig. 4b), individual mouse values” ([6]; 1 µmol, HFD mice) was 109.75 and 118.917 and 137.25 and 189.75 and 144.75 and 162.25 and 110.583 and 122.25 and 108.917 and 100.583. For the same compound, the “Serum TC (Fig. 4a), group mean (Mean 2)” value ([6]; 1 µmol, HFD mice) was 91.58, the “Serum TC (Fig. 4a), Mean Diff. ND vs. treatment (Tukey)” value ([6]; 1 µmol) was 87.84 and the “Serum TC (Fig. 4a), Mean Diff. Vehicle vs. treatment (Tukey)” value ([6]; 1 µmol) was 158.5. The “Mean Diff., ND vs. treated (Fig. 4b)” value ([6]; ND minus 0.1 µmol group) was 51.51, the “Mean Diff., ND vs. treated (Fig. 4b)” value ([6]; ND minus 1 µmol group) was 16.27 and the “Mean Diff., Vehicle vs. treated (Fig. 4b)” value ([6]; Vehicle minus 0.1 µmol group) was 20.52. The “Mean Diff., Vehicle vs. treated (Fig. 4b)” value ([6]; Vehicle minus 1 µmol group) was -14.72, the “Mean (Fig. 4b)” value ([6]; 0.1 µmol, HFD mice) was 95.26 and the “Mean (Fig. 4b)” value ([6]; 1 µmol, HFD mice) was 130.5. The “serum triglyceride level vs vehicle” value [6, 9] was “no significant difference”.
